Literature values in patent US20230143212A1 (Navinta, LLC, priority 2021, published 2023).
Several values for one entry are separate records, joined by “and”; a condition that tells them apart may be missing. Identical values can stand only once. Like-named read-outs stand apart in the source and are kept apart here.

Columns and labels:
[1] = rabbits; composition in polyethylene glycol-300 with and without bile salt
[2] = ethyl alcohol, DMSO, propylene glycol, polyethylene glycol, glycerol, dimethylformamide
[3] = orally administered
[4] = for solubility in propylene glycol/water: 25° C.

- bioavailability via intranasal route [1]: increased substantially
- solubility in organic solvents [2]: soluble
- Plasma T½ [3]: ~ 50 minutes
- oral absorption [3]: almost completely absorbed
- oral bioavailability [3]: ~ 15%
- solubility in propylene glycol/water ([4]; 60% v/v propylene glycol): about 250 mM and 60 mg/ml
- solubility in propylene glycol/water ([4]; until reaching 40% v/v propylene glycol): up to 50 mM and ~ 12 mg/ml
- pH dependence of solubility in water ([4]; water): pH-independent solubility
Structure (SMILES): COc1ccc2[nH]cc(CCNC(C)=O)c2c1 [Melatonin, N-[2-(5-Methoxy-1H-indol-3-yl)ethyl] acetamide]
